Molecular target: T1, farnesyltransferase (Rattus norvegicus, UniProt Q02293+Q04631)
T1 construct: The enzyme can be purified according to Cell, 62: 81-88 (1990), utilizing steps one, two, and three; from tissue; host or cells: rat brain
Test: Inhibition of farnesyltransferase (3H-farnesyldiphosphate / H-Ras filter assay)
Format: biochemical
Details: 3H-farnesyldiphosphate 0.6 μM, H-Ras 5.0 μM, 37° C., 30 minutes; for inhibition at 0.001 µM: test compound at 10^−9 M (stated in the cell); for inhibition at 0.01 µM: test compound at 10^−8 M
From the text: The ability of the compounds of the present invention to inhibit farnesyltransferase can be measured according to the method described in J. Biol. Chem., 266: 14603 (1991) or J. Biol. Chem., 270:660-664 (1995). Procedures for determination of the inhibition of farnesylation of the oncogene protein Ras are described in J. Biol. Chem., 266:15575-15578 (1991) and U.S. Pat. No. 5,245,061. Inhibition of rat brain farnesyltransferase can also be measured in vitro using an Amersham Life Science commercial scintillation proximity assay kit and substituting a biotin-K Ras B fragment (0.1 μM final concentration) for the biotin-lamin substrate provided by Amersham. The enzyme can be purified according to Cell, 62: 81-88 (1990), utilizing steps one, two, and three. […] The percent inhibition of the farnesylation caused by the compounds of the present invention (at 10^−6 M) compared to an uninhibited control sample can be evaluated in the same Amersham test system.
The mixture was brought to 37° C., treated with enzyme, incubated for 30 minutes, treated with 1 M HCl/ethanol (1 mL) to stop the reaction, stirred for 15 minutes at room temperature, diluted with ethanol (2 mL), filtered through a 2.5 cm glass microfiber filter (Whatman) with ethanol rinses (4×2 mL). The glass transferred to a scintillation vial and treated with scintillation fluid (5 mL). The radioisotope retained on the glass fiber filter was counted and reflected the activity of the enzyme.

T1 sequence (Q02293 whole entry, one chain of several): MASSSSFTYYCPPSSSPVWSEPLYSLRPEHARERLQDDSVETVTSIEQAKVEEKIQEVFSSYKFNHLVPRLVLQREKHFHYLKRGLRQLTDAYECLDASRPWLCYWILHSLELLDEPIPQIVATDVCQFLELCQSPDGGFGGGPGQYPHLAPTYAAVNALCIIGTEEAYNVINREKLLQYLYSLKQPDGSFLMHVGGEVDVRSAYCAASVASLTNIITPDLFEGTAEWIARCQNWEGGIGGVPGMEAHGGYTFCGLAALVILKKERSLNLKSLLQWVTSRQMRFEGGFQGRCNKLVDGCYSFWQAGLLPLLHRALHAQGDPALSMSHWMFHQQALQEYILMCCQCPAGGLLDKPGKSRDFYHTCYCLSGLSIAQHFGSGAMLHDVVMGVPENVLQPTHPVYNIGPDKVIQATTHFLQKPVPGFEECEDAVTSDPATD

| inhibition at 0.001 µM | inhibition at 0.01 µM | Compound |
| --- | --- | --- |
| 75% | – | Cn1cncc1C(O)(COc1ccc(C#N)cc1-c1ccc(F)c(Cl)c1)c1ccc(C#N)cc1 (stereo not drawn) [Example 65, 3′-chloro-6-(2-(4-cyanophenyl)-2-hydroxy-2-(1-methyl-1H-imidazol-5-yl)ethoxy)4′-fluoro-1,1′-biphenyl-3-carbonitrile] |
| – | 93% | Cn1cncc1C(F)(COc1ccc(C#N)cc1-c1ccc(F)c(Cl)c1)c1ccc(C#N)cc1 (stereo not drawn) [Example 66, 3′-chloro-6-(2-(4-cyanophenyl)-2-fluoro-2-(1-methyl-1H-imidazol-5-yl)ethoxy)-4′-fluoro-1,1′-biphenyl-3-carbonitrile] |
| – | 94% | Cn1cncc1C(O)(COc1ccc(C#N)cc1-c1cc(F)cc(F)c1)c1ccc(C#N)cc1 (stereo not drawn) [Example 67, 6-(2-(4-cyanophenyl)-2-hydroxy-2-(1-methyl-1H-imidazol-5-yl)ethoxy)-3′,5′-difluoro-1,1′-biphenyl-3-carbonitrile] |
| – | 91% | Cn1cncc1C(F)(COc1ccc(C#N)cc1-c1cc(F)cc(F)c1)c1ccc(C#N)cc1 (stereo not drawn) [Example 68, 6-(2-(4-cyanophenyl)-2-fluoro-2-(1-methyl-1H-imidazol-5-yl)ethoxy)-3′,5′-difluoro-1,1′-biphenyl-3-carbonitrile] |
| – | 95% | Cn1cncc1C(O)(COc1ccc(C#N)cc1-c1cccc(OC(F)(F)F)c1)c1ccc(C#N)cc1 (stereo not drawn) [Example 69, 6-(2-(4-cyanophenyl)-2-hydroxy-2-(1-methyl-1H-imidazol-5-yl)ethoxy)-3′-(trifluoromethoxy)-1,1′-biphenyl-3-carbonitrile] |
| – | 94% | Cn1cncc1C(F)(COc1ccc(C#N)cc1-c1cccc(OC(F)(F)F)c1)c1ccc(C#N)cc1 (stereo not drawn) [Example 70, 6-(2-(4-cyanophenyl)-2-fluoro-2-(1-methyl-1H-imidazol-5-yl)ethoxy)-3′-(trifluoromethoxy)-1,1′-biphenyl-3-carbonitrile] |
| – | 97% | Cn1cncc1C(O)(COc1ccc(C#N)cc1-c1ccc(Cl)c(Cl)c1)c1ccc(C#N)cc1 (stereo not drawn) [Example 71, 3′,4′-dichloro-6-(2-(4-cyanophenyl)-2-hydroxy-2-(1-methyl-1H-imidazol-5-yl)ethoxy)-1,1′-biphenyl-3-carbonitrile] |
| – | 94% | Cn1cncc1C(F)(COc1ccc(C#N)cc1-c1ccc(Cl)c(Cl)c1)c1ccc(C#N)cc1 (stereo not drawn) [Example 72, 3′,4′-dichloro-6-(2-(4-cyanophenyl)-2-fluoro-2-(1-methyl-1H-imidazol-5-yl)ethoxy)-1,1′-biphenyl-3-carbonitrile] |
| – | 96% | Cn1cncc1C(O)(COc1ccc(C#N)cc1-c1cc(Cl)cc(Cl)c1)c1ccc(C#N)cc1 (stereo not drawn) [Example 73, 3′,5′-dichloro-6-(2-(4-cyanophenyl)-2-hydroxy-2-(1-methyl-1H-imidazol-5-yl)ethoxy)-1,1′-biphenyl-3-carbonitrile] |
| – | 95% | Cn1cncc1C(F)(COc1ccc(C#N)cc1-c1cc(Cl)cc(Cl)c1)c1ccc(C#N)cc1 (stereo not drawn) [Example 74, 3′,5′-dichloro-6-(2-(4-cyanophenyl)-2-fluoro-2-(1-methyl-1H-imidazol-5-yl)ethoxy)-1,1′-biphenyl-3-carbonitrile] |
| – | 96% | Cn1cncc1C(O)(COc1ccc(C#N)cc1-c1cccc(F)c1)c1ccc(C#N)cc1 (stereo not drawn) [Example 75, 6-(2-(4-cyanophenyl)-2-hydroxy-2-(1-methyl-1H-imidazol-5-yl)ethoxy)-3′-fluoro-1,1′-biphenyl-3-carbonitrile] |
| – | 95% | Cn1cncc1C(F)(COc1ccc(C#N)cc1-c1cccc(F)c1)c1ccc(C#N)cc1 (stereo not drawn) [Example 76, 6-(2-(4-cyanophenyl)-2-fluoro-2-(1-methyl-1H-imidazol-5-yl)ethoxy)-3′-fluoro-1,1′-biphenyl-3-carbonitrile] |
| – | 98% | Cn1cncc1C(O)(COc1ccc(C#N)cc1-c1cccc(Cl)c1)c1ccc(C#N)cc1 (stereo not drawn) [Example 77, 3′-chloro-6-(2-(4-cyanophenyl)-2-hydroxy-2-(1-methyl-1H-imidazol-5-yl)ethoxy)-1,1′-biphenyl-3-carbonitrile] |
| – | 97% | Cn1cncc1C(F)(COc1ccc(C#N)cc1-c1cccc(Cl)c1)c1ccc(C#N)cc1 (stereo not drawn) [Example 78, 3′-chloro-6-(2-(4-cyanophenyl)-2-fluoro-2-(1-methyl-1H-imidazol-5-yl)ethoxy)-1,1′-biphenyl-3-carbonitrile] |
| – | 96% | Cn1cncc1C(O)(COc1ccc(C#N)cc1-c1ccc2c(c1)OC(F)(F)O2)c1ccc(C#N)cc1 (stereo not drawn) [Example 79, 4-(2-(4-cyanophenyl)-2-hydroxy-2-(1-methyl-1H-imidazol-5-yl)ethoxy)-3-(2,2-difluoro-1,3-benzodioxol-5-yl)benzonitrile] |
| – | 90% | Cn1cncc1C(F)(COc1ccc(C#N)cc1-c1ccc2c(c1)OC(F)(F)O2)c1ccc(C#N)cc1 (stereo not drawn) [Example 80, 4-(2-(4-cyanophenyl)-2-fluoro-2-(1-methyl-1H-imidazol-5-yl)ethoxy)-3-(2,2-difluoro-1,3-benzodioxol-5-yl)benzonitrile] |
| – | 90% | Cn1cncc1C(O)(COc1ccc(C#N)cc1-c1cccc2ccccc12)c1ccc(C#N)cc1 (stereo not drawn) [Example 81, 4-(2-(4-cyanophenyl)-2-hydroxy-2-(1-methyl-1H-imidazol-5-yl)ethoxy)-3-(1-naphthyl)benzonitrile] |
| – | 15% | N#Cc1ccc(C(O)(COc2ccc(C#N)cc2-c2ccc(OC(F)(F)F)cc2)c2cncs2)cc1 (stereo not drawn) [Example 82, 6-(2-(4-cyanophenyl)-2-hydroxy-2-(1,3-thiazol-5-yl)ethoxy)-4′-(trifluoromethoxy)-1,1′-biphenyl-3-carbonitrile] |
| – | 96% | Cn1cncc1C(N)(COc1ccc(C#N)cc1-c1ccc(OC(F)(F)F)cc1)c1ccc(C#N)cc1 (stereo not drawn) [Example 83, 6-(2-amino-2-(4-cyanophenyl)-2-(1-methyl-1H-imidazol-5-yl)ethoxy)-4′-(trifluoromethoxy)-1,1′-biphenyl-3-carbonitrile] |
| – | 92% | COc1cccc(-c2cc(C#N)ccc2N(C)CC(O)(c2ccc(C#N)cc2)c2cncn2C)c1 (stereo not drawn) [Example 84, 6-((2-(4-cyanophenyl)-2-hydroxy-2-(1-methyl-1H-imidazol-5-yl)ethyl)(methyl)amino)-3′-methoxy-1,1′-biphenyl-3-carbonitrile] |
| – | 65% | COc1cccc(-c2cc(C#N)ccc2N(C)CC(F)(c2ccc(C#N)cc2)c2cncn2C)c1 (stereo not drawn) [Example 85, 6-((2-(4-cyanophenyl)-2-fluoro-2-(1-methyl-1H-imidazol-5-yl)ethyl)(methyl)amino)-3′-methoxy-1,1′-biphenyl-3-carbonitrile] |
| – | 94% | CN(CC(O)(c1ccc(C#N)cc1)c1cncn1C)c1ccc(C#N)cc1-c1ccc(OC(F)(F)F)cc1 (stereo not drawn) [Example 86, 6-((2-(4-cyanophenyl)-2-hydroxy-2-(1-methyl-1H-imidazol-5-yl)ethyl)(methyl)amino)-4′-(trifluoromethoxy)-1,1′-biphenyl-3-carbonitrile] |
| – | 91% | Cc1ccnc(NC(=O)c2cc(C#N)ccc2COC(c2ccc(C#N)cc2)c2cncn2C)c1 (stereo not drawn) [Example 87, 5-cyano-2-(((4-cyanophenyl)(1-methyl-1H-imidazol-5-yl)methoxy)methyl)-N-(4-methylpyridin-2-yl)benzamide] |
| – | 90% | Cn1cncc1C(OCc1ccc(C#N)cc1C(=O)Nc1cccc(Cl)c1)c1ccc(C#N)cc1 (stereo not drawn) [Example 88, N-(3-chlorophenyl)-5-cyano-2-(((4-cyanophenyl)(1-methyl-1H-imidazol-5-yl)methoxy)methyl)benzamide] |
| 75% | – | Cn1cncc1C(OCc1ccc(C#N)nc1-c1ccc2c(c1)OC(F)(F)O2)c1ccc(C#N)cc1 (stereo not drawn) [Example 89, 5-(((4-cyanophenyl)(1-methyl-1H-imidazol-5-yl)methoxy)methyl)-6-(2,2-difluoro-1,3-benzodioxol-5-yl)pyridine-2-carbonitrile] |
| – | 77% | CCCn1cc(-c2cc(C#N)ccc2COC(c2ccc(C#N)cc2)c2cncn2C)ccc1=O (stereo not drawn) [Example 91, 4-(((4-cyanophenyl)(1-methyl-1H-imidazol-5-yl)methoxy)methyl)-3-(6-oxo-1-propyl-1,6-dihydropyridin-3-yl)benzonitrile] |
| – | 94% | CCCOc1ccc(-c2cc(C#N)ccc2COC(c2ccc(C#N)cc2)c2cncn2C)cn1 (stereo not drawn) [Example 92, 4-(((4-cyanophenyl)(1-methyl-1H-imidazol-5-yl)methoxy)methyl)-3-(6-propoxypyridin-3-yl)benzonitrile] |
